# From patent US20260345619A1 (Principia Biopharma Inc., priority 2023, published 2026)
# Test: Pre-bronchodilator FEV1 and percent predicted FEV1 by spirometry, change from baseline
# Type: in vivo, human
# Experimental: Spirometry is a standard test to measure patients' lung function.
# The primary endpoint was the proportion of patients with LOAC. The key secondary endpoint for the study was change in pre-bronchodilator FEV1 from baseline at EOT.
# Reversibility is defined as an increase of the absolute FEV1 after administration of bronchodilator and is measured by spirometry as postbronchodilator increase in FEV1 in percent of the prebronchodilator FEV1. After spirometry for measuring prebronchodilator FEV1, participants were to receive 2-4 puffs of albuterol/salbutamol or levalbuterol/levosalbutamol from a primed MDI. The postbronchodilator spirometry may have been repeated several times within 30 minutes after administration of bronchodilator. Alternatively, and only if it was consistent with usual office practice (to be documented), reversibility may have been performed using inhalation of nebulized albuterol/salbutamol or levalbuterol/levosalbutamol.
# Secondary endpoints included pre-bronchodilator FEV1 change from baseline at EOT, ACQ-5 score change from baseline, and AQLQ score change from baseline. Other secondary and exploratory endpoints are described in Table 2.
# [1] = 400 mg BID, Week 12, before LOAC and OCS use, as observed, mITT
# [2] = 400 mg BID, Week 12, observed/LOCF imputed, mITT
# [3] = 400 mg BID, Week 12, on-site conventional spirometry as observed, mITT
# [4] = 400 mg BID, Week 12, reduced model, mITT
# [5] = 400 mg BID, Week 16, before LOAC and OCS use, as observed, mITT
# [6] = 400 mg BID, Week 16, on-site conventional spirometry as observed, mITT
# [7] = 400 mg TID, Week 12, 1 exacerbation within 2 years
# [8] = 400 mg TID, Week 12, 2 exacerbations within 2 years
# [9] = 400 mg TID, Week 12, Eastern Europe
# [10] = 400 mg TID, Week 12, Latin America
# [11] = 400 mg TID, Week 12, age <45 years
# [12] = 400 mg TID, Week 12, age ≥45 years
# [13] = 400 mg TID, Week 12, asthma onset age <12 years
# [14] = 400 mg TID, Week 12, asthma onset age <18 years
# [15] = 400 mg TID, Week 12, asthma onset age ≥12-<18 years
# [16] = 400 mg TID, Week 12, asthma onset age ≥18-<40 years
# [17] = 400 mg TID, Week 12, asthma onset age ≥18 years
# [18] = 400 mg TID, Week 12, asthma onset age ≥40 years
# [19] = 400 mg TID, Week 12, atopic medical conditions: No
# [20] = 400 mg TID, Week 12, atopic medical conditions: Yes
# [21] = 400 mg TID, Week 12, background ICS dose High
# [22] = 400 mg TID, Week 12, background ICS dose Medium
# [23] = 400 mg TID, Week 12, baseline ACQ-5 >2
# [24] = 400 mg TID, Week 12, baseline ACQ-5 ≤2
# [25] = 400 mg TID, Week 12, baseline BMI <25 kg/m^2
# [26] = 400 mg TID, Week 12, baseline BMI ≥25-<30 kg/m^2
# [27] = 400 mg TID, Week 12, baseline BMI ≥30 kg/m^2
# [28] = 400 mg TID, Week 12, baseline FEV1 <2.1955 L (median)
# [29] = 400 mg TID, Week 12, baseline FEV1 reversibility <12%
# [30] = 400 mg TID, Week 12, baseline FEV1 reversibility ≥12%
# [31] = 400 mg TID, Week 12, baseline FEV1 ≥2.1955 L (median)
# [32] = 400 mg TID, Week 12, baseline FeNO <25 ppb
# [33] = 400 mg TID, Week 12, baseline FeNO <35 ppb
# [34] = 400 mg TID, Week 12, baseline FeNO ≥25 ppb
compound,measurement,setting,value
"CC(C)(C=C(C#N)C(=O)N1CCC[C@@H](n2nc(-c3ccc(Oc4ccccc4)cc3F)c3c(N)ncnc32)C1)N1CCN(C2COC2)CC1 (mixture of isomers) [rilzabrutinib, (R)-2-[3-[4-amino-3-(2-fluoro-4-phenoxy-phenyl)pyrazolo[3,4-d]pyrimidin-1-yl]piperidine-1-carbonyl]-4-methyl-4-[4-(oxetan-3-yl)piperazin-1-yl]pent-2-enenitrile]","Pre-bronchodilator FEV1 change from baseline, median",[1],-0.04 L
same,"Pre-bronchodilator FEV1 percent change from baseline, mean",[1],−2.63%
same,"Pre-bronchodilator FEV1 percent change from baseline, median",[1],−2.04%
same,"Change from baseline in pre-bronchodilator FEV1, Mean",[2],-0.04 L
same,"Change from baseline in pre-bronchodilator FEV1, Median",[2],-0.02 L
same,"Pre-bronchodilator FEV1, Mean",[2],2.02 L
same,"Pre-bronchodilator FEV1, Median",[2],1.88 L
same,"Pre-bronchodilator FEV1, mean",[2],2.02 L
same,"Pre-bronchodilator FEV1, median",[2],1.88 L
same,"Pre-bronchodilator FEV1 change from baseline, LS Mean",[2],-0.07 L
same,"Pre-bronchodilator FEV1 change from baseline, LS Mean Diff vs. placebo",[2],0.01 L
same,"Pre-bronchodilator FEV1 change from baseline, Mean",[2],-0.04 L
same,"Pre-bronchodilator FEV1 change from baseline, median",[2],-0.02 L
same,"Pre-bronchodilator FEV1, mean",[3],1.97 L
same,"Pre-bronchodilator FEV1, median",[3],1.82 L
same,"Pre-bronchodilator FEV1 change from baseline, Mean",[3],-0.03 L
same,"Pre-bronchodilator FEV1 change from baseline, median",[3],-0.05 L
same,"Pre-bronchodilator FEV1 percent change from baseline, mean",[3],−3.27%
same,"Pre-bronchodilator FEV1 percent change from baseline, median",[3],−2.70%
same,"Change from baseline in pre-bronchodilator FEV1, LS Mean",[4],-0.07 L
same,"Change from baseline in pre-bronchodilator FEV1, LS Mean diff vs. placebo",[4],0.01 L
same,"Pre-bronchodilator FEV1, mean",[5],2.30 L
same,"Pre-bronchodilator FEV1, median",[5],2.01 L
same,"Pre-bronchodilator FEV1 change from baseline, Mean",[5],0.29 L
same,"Pre-bronchodilator FEV1 change from baseline, median",[5],0.28 L
same,"Pre-bronchodilator FEV1 percent change from baseline, mean",[5],13.96%
same,"Pre-bronchodilator FEV1 percent change from baseline, median",[5],15.23%
same,"Pre-bronchodilator FEV1, mean",[6],2.30 L
same,"Pre-bronchodilator FEV1, median",[6],2.01 L
same,"Pre-bronchodilator FEV1 change from baseline, Mean",[6],0.29 L
same,"Pre-bronchodilator FEV1 change from baseline, median",[6],0.28 L
same,"Pre-bronchodilator FEV1 percent change from baseline, mean",[6],13.96%
same,"Pre-bronchodilator FEV1 percent change from baseline, median",[6],15.23%
same,"Pre-bronchodilator FEV1 change from baseline, LS Mean",[7],-0.14 L
same,"Pre-bronchodilator FEV1 change from baseline, LS Mean Diff vs. placebo",[7],-0.13 L
same,"Pre-bronchodilator FEV1 change from baseline, Mean",[7],-0.16 L
same,"Pre-bronchodilator FEV1 change from baseline, LS Mean",[8],-0.08 L
same,"Pre-bronchodilator FEV1 change from baseline, LS Mean Diff vs. placebo",[8],0.06 L
same,"Pre-bronchodilator FEV1 change from baseline, Mean",[8],-0.16 L
same,"Pre-bronchodilator FEV1 change from baseline, Mean","400 mg TID, Week 12, >2 exacerbations within 2 years",0.01 L
same,"Pre-bronchodilator FEV1 change from baseline, LS Mean",[9],-0.18 L
same,"Pre-bronchodilator FEV1 change from baseline, LS Mean Diff vs. placebo",[9],-0.08 L
same,"Pre-bronchodilator FEV1 change from baseline, Mean",[9],-0.18 L
same,"Pre-bronchodilator FEV1 change from baseline, LS Mean",[10],-0.08 L
same,"Pre-bronchodilator FEV1 change from baseline, LS Mean Diff vs. placebo",[10],-0.12 L
same,"Pre-bronchodilator FEV1 change from baseline, Mean",[10],-0.08 L
same,"Pre-bronchodilator FEV1 change from baseline, Mean","400 mg TID, Week 12, Western Countries",-0.18 L
same,"Pre-bronchodilator FEV1 change from baseline, LS Mean",[11],-0.24 L
same,"Pre-bronchodilator FEV1 change from baseline, LS Mean Diff vs. placebo",[11],-0.18 L
same,"Pre-bronchodilator FEV1 change from baseline, Mean",[11],-0.24 L
same,"Pre-bronchodilator FEV1 change from baseline, LS Mean",[12],-0.04 L
same,"Pre-bronchodilator FEV1 change from baseline, LS Mean Diff vs. placebo",[12],-0.01 L
same,"Pre-bronchodilator FEV1 change from baseline, Mean",[12],-0.08 L
same,"Pre-bronchodilator FEV1 change from baseline, LS Mean",[13],-0.34 L
same,"Pre-bronchodilator FEV1 change from baseline, LS Mean Diff vs. placebo",[13],-0.28 L
same,"Pre-bronchodilator FEV1 change from baseline, Mean",[13],-0.25 L
same,"Pre-bronchodilator FEV1 change from baseline, LS Mean",[14],-0.25 L
same,"Pre-bronchodilator FEV1 change from baseline, LS Mean Diff vs. placebo",[14],-0.27 L
same,"Pre-bronchodilator FEV1 change from baseline, Mean",[14],-0.18 L
same,"Pre-bronchodilator FEV1 change from baseline, LS Mean",[15],0.05 L
same,"Pre-bronchodilator FEV1 change from baseline, LS Mean Diff vs. placebo",[15],-0.40 L
same,"Pre-bronchodilator FEV1 change from baseline, Mean",[15],-0.01 L
same,"Pre-bronchodilator FEV1 change from baseline, LS Mean",[16],-0.18 L
same,"Pre-bronchodilator FEV1 change from baseline, LS Mean Diff vs. placebo",[16],-0.08 L
same,"Pre-bronchodilator FEV1 change from baseline, Mean",[16],-0.17 L
same,"Pre-bronchodilator FEV1 change from baseline, LS Mean",[17],-0.10 L
same,"Pre-bronchodilator FEV1 change from baseline, LS Mean Diff vs. placebo",[17],-0.02 L
same,"Pre-bronchodilator FEV1 change from baseline, Mean",[17],-0.14 L
same,"Pre-bronchodilator FEV1 change from baseline, LS Mean",[18],0.01 L
same,"Pre-bronchodilator FEV1 change from baseline, LS Mean Diff vs. placebo",[18],0.06 L
same,"Pre-bronchodilator FEV1 change from baseline, Mean",[18],-0.07 L
same,"Pre-bronchodilator FEV1 change from baseline, LS Mean",[19],-0.15 L
same,"Pre-bronchodilator FEV1 change from baseline, LS Mean Diff vs. placebo",[19],-0.11 L
same,"Pre-bronchodilator FEV1 change from baseline, Mean",[19],-0.18 L
same,"Pre-bronchodilator FEV1 change from baseline, LS Mean",[20],-0.12 L
same,"Pre-bronchodilator FEV1 change from baseline, LS Mean Diff vs. placebo",[20],-0.04 L
same,"Pre-bronchodilator FEV1 change from baseline, Mean",[20],-0.09 L
same,"Pre-bronchodilator FEV1 change from baseline, LS Mean",[21],-0.13 L
same,"Pre-bronchodilator FEV1 change from baseline, LS Mean Diff vs. placebo",[21],-0.07 L
same,"Pre-bronchodilator FEV1 change from baseline, Mean",[21],-0.13 L
same,"Pre-bronchodilator FEV1 change from baseline, LS Mean",[22],-0.15 L
same,"Pre-bronchodilator FEV1 change from baseline, LS Mean Diff vs. placebo",[22],-0.10 L
same,"Pre-bronchodilator FEV1 change from baseline, Mean",[22],-0.18 L
same,"Pre-bronchodilator FEV1 change from baseline, LS Mean",[23],-0.15 L
same,"Pre-bronchodilator FEV1 change from baseline, LS Mean Diff vs. placebo",[23],-0.16 L
same,"Pre-bronchodilator FEV1 change from baseline, Mean",[23],-0.17 L
same,"Pre-bronchodilator FEV1 change from baseline, LS Mean",[24],-0.12 L
same,"Pre-bronchodilator FEV1 change from baseline, LS Mean Diff vs. placebo",[24],-0.01 L
same,"Pre-bronchodilator FEV1 change from baseline, Mean",[24],-0.10 L
same,"Pre-bronchodilator FEV1 change from baseline, LS Mean",[25],-0.19 L
same,"Pre-bronchodilator FEV1 change from baseline, LS Mean Diff vs. placebo",[25],-0.16 L
same,"Pre-bronchodilator FEV1 change from baseline, Mean",[25],-0.21 L
same,"Pre-bronchodilator FEV1 change from baseline, LS Mean",[26],-0.11 L
same,"Pre-bronchodilator FEV1 change from baseline, LS Mean Diff vs. placebo",[26],-0.05 L
same,"Pre-bronchodilator FEV1 change from baseline, Mean",[26],-0.14 L
same,"Pre-bronchodilator FEV1 change from baseline, LS Mean",[27],-0.11 L
same,"Pre-bronchodilator FEV1 change from baseline, LS Mean Diff vs. placebo",[27],-0.07 L
same,"Pre-bronchodilator FEV1 change from baseline, Mean",[27],-0.14 L
same,"Pre-bronchodilator FEV1 change from baseline, LS Mean",[28],-0.03 L
same,"Pre-bronchodilator FEV1 change from baseline, LS Mean Diff vs. placebo",[28],-0.09 L
same,"Pre-bronchodilator FEV1 change from baseline, Mean",[28],-0.05 L
same,"Pre-bronchodilator FEV1 change from baseline, LS Mean",[29],-0.16 L
same,"Pre-bronchodilator FEV1 change from baseline, LS Mean Diff vs. placebo",[29],-0.12 L
same,"Pre-bronchodilator FEV1 change from baseline, Mean",[29],-0.18 L
same,"Pre-bronchodilator FEV1 change from baseline, LS Mean",[30],-0.01 L
same,"Pre-bronchodilator FEV1 change from baseline, LS Mean Diff vs. placebo",[30],-0.02 L
same,"Pre-bronchodilator FEV1 change from baseline, Mean",[30],0.00 L
same,"Pre-bronchodilator FEV1 change from baseline, LS Mean",[31],-0.22 L
same,"Pre-bronchodilator FEV1 change from baseline, LS Mean Diff vs. placebo",[31],-0.09 L
same,"Pre-bronchodilator FEV1 change from baseline, Mean",[31],-0.21 L
same,"Pre-bronchodilator FEV1 change from baseline, LS Mean",[32],-0.16 L
same,"Pre-bronchodilator FEV1 change from baseline, LS Mean Diff vs. placebo",[32],-0.12 L
same,"Pre-bronchodilator FEV1 change from baseline, Mean",[32],-0.19 L
same,"Pre-bronchodilator FEV1 change from baseline, LS Mean",[33],-0.14 L
same,"Pre-bronchodilator FEV1 change from baseline, LS Mean Diff vs. placebo",[33],-0.09 L
same,"Pre-bronchodilator FEV1 change from baseline, Mean",[33],-0.18 L
same,"Pre-bronchodilator FEV1 change from baseline, LS Mean",[34],-0.09 L
same,"Pre-bronchodilator FEV1 change from baseline, LS Mean Diff vs. placebo",[34],-0.04 L
same,"Pre-bronchodilator FEV1 change from baseline, Mean",[34],-0.09 L
same,"Pre-bronchodilator FEV1 change from baseline, LS Mean","400 mg TID, Week 12, baseline FeNO ≥35 ppb",-0.07 L
